Earlier results, collected in PMC10994420, “Development of peptides for targeting cell ablation agents concurrently to the Sertoli and Leydig cell populations of the testes: An approach to non-surgical sterilization” (PLOS ONE, 2024).
Numbered stars: 1 amine (or outer) side, 2 acyl side, 3 side chain; on linkers, the order of the positions; unused ones are H or OH. Square brackets hold non-standard residues; d marks the D form. Peptide text beside a SMILES is read from it. * marks the point of attachment. Dolaproine = CO[C@@H]([C@@H]1CCCN1)[C@@H](C)C(=O)O; Hexanoyl(6-maleimido) = O=C1C=CC(=O)N1CCCCCC(=O)*; Dil = CC[C@H](C)[C@H](NC)[C@@H](CC(=O)O)OC; PABC = O=C(OCc1ccc(N[*:1])cc1)[*:2]; X1 = C[C@@H](N*)[C@@H](O)c1ccccc1; Cit = NC(=O)NCCC[C@H](N)C(=O)O; NMeV = CN[C@H](C(=O)O)C(C)C

Tests used:
[1] = no reference given
Experimental: Four treatment groups of ten 55-day-old male Swiss male CD1 mice were injected intraperitoneally. Treatments included: (1) […] vehicle control (30% Solutol (Kolliphor)/PBS), (2) 300 μL/30 g 14.5 mM FSH2Menadione, (3) 100 μL/30g 425 μM LH2Aur, or (4) 300 μL/30 g 14.5 mM FSH2Menadione plus 100 μL/30g 425 μM LH2Aur (consecutive injections, 16 h apart). The dose of 1 mg/kg of conjugated Auristatin was determined with reference to the work by Doronina et al., who determined the maximum tolerated dose (MTD) of conjugated Auristatin for mice is 1.1 mg/kg. Solubility of the FSH2Menadione was ...

[2] = maleimide form with valine-citrulline linker; ref https://www.chemsrc.com/en/cas/646502-53-6_1197872.html
Source text: Among these criteria, aqueous solubility was considered an important factor, both in the context of reaction with Auristatin and for use of biocompatible solvents for in vivo delivery.

CC1=CC(=O)c2ccccc2C1=O [menadione, 2-methyl-1,4-naphthoquinone]
MTD [1]: 830 mg/kg

CC[C@H](C)[C@@H]([C@@H](CC(=O)N1CCC[C@H]1[C@H](OC)[C@@H](C)C(=O)N[C@H](C)[C@@H](O)c1ccccc1)OC)N(C)C(=O)[C@@H](NC(=O)[C@H](C(C)C)N(C)C(=O)OCc1ccc(NC(=O)[C@H](CCCNC(N)=O)NC(=O)[C@@H](NC(=O)CCCCCN2C(=O)C=CC2=O)C(C)C)cc1)C(C)C [Auristatin, maleimide-valine-citrulline- para-aminobenzyloxycarbonyl -monomethyl-Auristatin E] ({Hexanoyl(6-maleimido)}-V[Cit][PABC][NMeV]V[Dil][Dolaproine]-X1)
aqueous solubility [2]: very poor
logP value [2]: 6.04
